Results published in ChEMBL document CHEMBL4715878 (J Med Chem, 2020).
pIC50: −log10 of the molar value. Calls of active or inactive are those of the source. No cut-off for these calls is given here.

Experiments:
BT-474 [1] = assay: Antitumor activity against human BT474 cells xenografted in athymic nude mouse assessed as reduction in metastasis of cells at 50 mg/kg, po administered via oral gavage for 5 times per week for 55 days measured post-last dose; format: functional, organism-based; conditions: time 55.0 day
BT-474 [2] = assay: Antitumor activity against human BT474 cells xenografted in athymic nude mouse assessed as suppression of tumor growth by measuring decrease in number of Ki67 positive cells at 50 mg/kg, po administered via oral gavage for 5 times per week for 55 days measured post-last dose by Ki67-staining based immunohistochemistry; format: functional, organism-based; conditions: time 55.0 day
BT-474 [3] = assay: Antitumor activity against human BT474 cells xenografted in athymic nude mouse assessed as inflammation in tumors at 50 mg/kg, po administered via oral gavage for 5 times per week for 55 days measured post-last dose by H and E staining based immunohistochemical analysis; format: functional, organism-based; conditions: time 55.0 day
BT-474 [4] = assay: Antitumor activity against human BT474 cells xenografted in athymic nude mouse assessed as appearance of tumor fibrosis at 50 mg/kg, po administered via oral gavage for 5 times in a week for 55 days measured post-last dose by H and E staining based immunohistochemical analysis; format: functional, organism-based; conditions: time 55.0 day
BT-474 [5] = assay: Antitumor activity against human BT474 cells xenografted in athymic nude mouse assessed as tumor necrosis at 50 mg/kg, po administered via oral gavage for 5 times in a week for 55 days measured post-last dose by H and E staining based immunohistochemical analysis; format: functional, organism-based; conditions: time 55.0 day
BT-474 [6] = assay: Antitumor activity against human BT474 cells xenografted in athymic nude mouse assessed as tumor weight at 50 mg/kg, po administered via oral gavage for 5 times in a week for 55 days measured post last dose (reference value: 2.046 g); format: functional; conditions: time 55 day
BT-474 [7] = assay: Antitumor activity against human BT474 cells xenografted in athymic nude mouse assessed as tumor growth inhibition at 50 mg/kg, po administered via oral gavage for 5 times in a week for 55 days measured post last dose; format: functional, organism-based; conditions: time 55.0 day
[8] = target: T1, Receptor tyrosine-protein kinase erbB-2 (Homo sapiens, UniProt P04626); assay: Inhibition of HER2 in human BT474 cells assessed as reduction in Erk1/2 phosphorylation at 0.5 IC50 incubated for 24 to 48 hrs by western blot analysis; format: cell-based; conditions: BT-474, time 24-48 hrs
T1 sequence (P04626 whole entry): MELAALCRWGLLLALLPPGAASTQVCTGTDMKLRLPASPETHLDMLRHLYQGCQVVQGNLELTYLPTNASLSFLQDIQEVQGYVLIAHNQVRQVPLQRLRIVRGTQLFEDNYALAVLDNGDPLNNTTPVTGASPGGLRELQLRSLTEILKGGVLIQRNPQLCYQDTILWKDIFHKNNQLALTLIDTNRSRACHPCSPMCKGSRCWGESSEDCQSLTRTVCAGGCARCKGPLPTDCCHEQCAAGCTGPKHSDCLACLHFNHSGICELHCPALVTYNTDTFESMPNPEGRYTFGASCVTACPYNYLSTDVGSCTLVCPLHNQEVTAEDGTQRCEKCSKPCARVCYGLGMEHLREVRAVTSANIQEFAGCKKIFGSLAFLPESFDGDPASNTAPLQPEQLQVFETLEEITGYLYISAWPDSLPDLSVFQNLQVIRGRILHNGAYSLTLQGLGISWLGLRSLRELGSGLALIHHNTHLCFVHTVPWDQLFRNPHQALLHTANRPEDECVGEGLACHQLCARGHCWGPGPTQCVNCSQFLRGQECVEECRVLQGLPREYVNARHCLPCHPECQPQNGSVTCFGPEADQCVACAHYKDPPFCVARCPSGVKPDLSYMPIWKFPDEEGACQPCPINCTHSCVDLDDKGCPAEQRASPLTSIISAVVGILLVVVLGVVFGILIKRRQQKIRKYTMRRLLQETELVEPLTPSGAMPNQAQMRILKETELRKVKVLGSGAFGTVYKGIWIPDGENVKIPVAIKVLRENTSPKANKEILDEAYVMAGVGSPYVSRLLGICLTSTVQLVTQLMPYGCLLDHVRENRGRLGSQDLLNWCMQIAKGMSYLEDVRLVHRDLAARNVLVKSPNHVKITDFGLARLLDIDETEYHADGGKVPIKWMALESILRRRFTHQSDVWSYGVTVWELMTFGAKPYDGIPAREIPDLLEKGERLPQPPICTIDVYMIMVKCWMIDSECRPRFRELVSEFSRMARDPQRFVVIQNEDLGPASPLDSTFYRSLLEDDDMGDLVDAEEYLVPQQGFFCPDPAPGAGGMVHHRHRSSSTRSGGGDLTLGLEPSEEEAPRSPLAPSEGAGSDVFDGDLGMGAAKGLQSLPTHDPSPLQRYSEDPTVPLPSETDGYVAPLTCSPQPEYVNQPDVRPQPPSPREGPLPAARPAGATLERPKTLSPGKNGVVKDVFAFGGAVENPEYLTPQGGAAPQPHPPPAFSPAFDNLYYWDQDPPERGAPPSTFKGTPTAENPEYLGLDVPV

[9] = target: T1, Receptor tyrosine-protein kinase erbB-2; assay: Inhibition of HER2 in human BT474 cells assessed as reduction in Erk1/2 phosphorylation at 0.1 IC50 incubated for 24 to 48 hrs by western blot analysis; format: cell-based; conditions: BT-474, time 24-48 hrs
[10] = target: T1, Receptor tyrosine-protein kinase erbB-2; assay: Inhibition of HER2 in human BT474 cells assessed as reduction in Akt phosphorylation at 0.5 IC50 incubated for 24 to 48 hrs by western blot analysis; format: cell-based; conditions: BT-474, time 24-48 hrs
[11] = target: T1, Receptor tyrosine-protein kinase erbB-2; assay: Inhibition of HER2 in human BT474 cells assessed as reduction in Akt phosphorylation at 0.1 IC50 incubated for 24 to 48 hrs by western blot analysis; format: cell-based; conditions: BT-474, time 24-48 hrs
[12] = target: T1, Receptor tyrosine-protein kinase erbB-2; assay: Inhibition of HER2 in human BT474 cells assessed as reduction in Akt phosphorylation at 0.1 IC50 after 24 to 48 hrs by Western blot analysis; format: cell-based; conditions: BT-474, time 24-48 hrs
[13] = target: T1, Receptor tyrosine-protein kinase erbB-2; assay: Inhibition of HER2 in human BT474 cells assessed as reduction in Akt phosphorylation at 0.5 IC50 after 24 to 48 hrs by Western blot analysis; format: cell-based; conditions: BT-474, time 24-48 hrs
BT-474 [14] = assay: Down regulation of HER2 expression in human BT474 cells at 0.1 IC50 after 24 to 48 hrs by Western blot analysis; format: functional, cell-based; conditions: time 24-48 hrs
BT-474 [15] = assay: Down regulation of HER2 expression in human BT474 cells at 0.5 IC50 after 24 to 48 hrs by Western blot analysis; format: functional, cell-based; conditions: time 24-48 hrs
BT-474 [16] = assay: Induction of apoptosis in human BT474 cells assessed as increase in late apoptotic cells at 0.5 to 5 uM incubated for 72 hrs by Annexin V-FITC/PI staining based flow cytometry analysis relative to control; format: functional; conditions: dose 0.5-5 µM
BT-474 [17] = assay: Induction of apoptosis in human BT474 cells assessed as increase in early apoptotic cells at 0.5 to 5 uM incubated for 72 hrs by Annexin V-FITC/PI staining based flow cytometry analysis relative to control; format: functional; conditions: dose 0.5-5 µM
BT-474 [18] = assay: Induction of apoptosis in human BT474 cells assessed as increase in early apoptotic cells incubated for 72 hrs by Annexin V-FITC/PI staining based flow cytometry analysis; format: functional, cell-based; conditions: dose 0.1-5 µM
[19] = Antiproliferative activity against human BC assessed as lethality at 10 uM after 48 hrs by SRB assay relative to control; format: functional
[20] = Antiproliferative activity against human BC assessed as cell growth inhibition at 10 uM after 48 hrs by SRB assay relative to control; format: functional; conditions: read-out: GI
[21] = Antiproliferative activity against human MDA-MB-231 cells assessed as lethality at 10 uM after 48 hrs by SRB assay relative to control; format: functional, MDA-MB-23
MCF7 [22] = assay: Antiproliferative activity against human MCF7 cells assessed as lethality at 10 uM after 48 hrs by SRB assay relative to control; format: functional
MDA-MB-468 [23] = assay: Antiproliferative activity against human MDA-MB-468 cells assessed as cell growth inhibition after 48 hrs by SRB assay; format: functional
MDA-MB-468 [24] = assay: Antiproliferative activity against human MDA-MB-468 cells assessed as lethality at 10 uM after 48 hrs by SRB assay relative to control; format: functional
MDA-MB-468 [25] = assay: Antiproliferative activity against human MDA-MB-468 cells assessed as cell growth inhibition at 10 uM after 48 hrs by SRB assay relative to control; format: functional; conditions: read-out: GI
[26] = tested on: Panel NCI-60 (60 carcinoma cell lines); assay: Antiproliferative activity against human NCI60 cells assessed as lethality at 10 uM after 48 hrs by SRB assay relative to control; format: functional
[27] = tested on: Panel NCI-60 (60 carcinoma cell lines); assay: Antiproliferative activity against human NCI60 cells assessed as mean cell growth at 10 uM after 48 hrs by SRB assay relative to control; format: functional
MDA-MB-231 = assay: Antiproliferative activity against human MDA-MB-231 cells assessed as reduction in cell viability incubated for 72 hrs by WST8 assay; format: functional, cell-based; conditions: MDA-MB-231, 72 h
MCF7 [28] = assay: Antiproliferative activity against human MCF7 cells assessed as reduction in cell viability incubated for 72 hrs by WST8 assay; format: functional, cell-based; conditions: MCF7, 72 h
[29] = target: Platelet-derived growth factor receptor alpha (Homo sapiens, UniProt P16234); assay: Effect on human recombinant N-terminal GST-tagged PDGFRalpha (550 to end residues) expressed in baculovirus infected Sf9 insect cells in presence of substrate and [gamma-32ATP] at 10 uM incubated for 30 mins by scintillation counting based radiometry assay relative to control; conditions: 0.5 h, read-out: Activity
Sequence of Platelet-derived growth factor receptor alpha (P16234 whole entry): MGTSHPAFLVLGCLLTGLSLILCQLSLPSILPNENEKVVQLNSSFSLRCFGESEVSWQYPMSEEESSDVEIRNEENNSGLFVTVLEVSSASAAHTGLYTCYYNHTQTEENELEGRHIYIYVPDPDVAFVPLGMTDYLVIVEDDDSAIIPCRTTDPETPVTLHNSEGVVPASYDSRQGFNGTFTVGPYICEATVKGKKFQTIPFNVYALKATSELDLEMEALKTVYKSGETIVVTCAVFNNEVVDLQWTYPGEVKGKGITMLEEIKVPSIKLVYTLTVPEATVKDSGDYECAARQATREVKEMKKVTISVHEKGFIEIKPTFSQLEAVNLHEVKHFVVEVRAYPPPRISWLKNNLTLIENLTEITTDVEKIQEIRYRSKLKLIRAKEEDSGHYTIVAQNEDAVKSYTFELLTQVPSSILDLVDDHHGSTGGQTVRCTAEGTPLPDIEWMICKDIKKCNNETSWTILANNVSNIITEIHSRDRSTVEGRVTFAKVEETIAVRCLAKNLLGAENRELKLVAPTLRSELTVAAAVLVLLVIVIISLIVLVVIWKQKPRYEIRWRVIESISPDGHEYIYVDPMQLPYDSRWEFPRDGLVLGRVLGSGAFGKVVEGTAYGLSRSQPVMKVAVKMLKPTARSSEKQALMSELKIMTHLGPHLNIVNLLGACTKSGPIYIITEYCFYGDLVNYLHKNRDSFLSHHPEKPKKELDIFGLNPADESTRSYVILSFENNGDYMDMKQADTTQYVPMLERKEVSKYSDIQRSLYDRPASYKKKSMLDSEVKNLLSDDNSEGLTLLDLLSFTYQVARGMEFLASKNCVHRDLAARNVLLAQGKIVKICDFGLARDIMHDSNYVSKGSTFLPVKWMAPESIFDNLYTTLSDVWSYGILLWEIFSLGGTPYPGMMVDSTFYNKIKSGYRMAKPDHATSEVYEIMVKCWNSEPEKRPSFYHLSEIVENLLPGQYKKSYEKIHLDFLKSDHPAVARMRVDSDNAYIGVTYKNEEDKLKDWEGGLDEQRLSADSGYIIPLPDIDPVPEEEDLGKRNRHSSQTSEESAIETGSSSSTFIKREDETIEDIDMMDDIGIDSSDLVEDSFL

[30] = target: Receptor tyrosine-protein kinase erbB-4 (Homo sapiens, UniProt Q15303); assay: Effect on human recombinant N-terminal GST-tagged HER4 (682 to 993) expressed in baculovirus infected Sf9 insect cells in presence of substrate and [gamma-32ATP] at 10 uM incubated for 30 mins by scintillation counting based radiometry assay relative to control; conditions: 0.5 h, read-out: Activity
Sequence of Receptor tyrosine-protein kinase erbB-4 (Q15303 whole entry): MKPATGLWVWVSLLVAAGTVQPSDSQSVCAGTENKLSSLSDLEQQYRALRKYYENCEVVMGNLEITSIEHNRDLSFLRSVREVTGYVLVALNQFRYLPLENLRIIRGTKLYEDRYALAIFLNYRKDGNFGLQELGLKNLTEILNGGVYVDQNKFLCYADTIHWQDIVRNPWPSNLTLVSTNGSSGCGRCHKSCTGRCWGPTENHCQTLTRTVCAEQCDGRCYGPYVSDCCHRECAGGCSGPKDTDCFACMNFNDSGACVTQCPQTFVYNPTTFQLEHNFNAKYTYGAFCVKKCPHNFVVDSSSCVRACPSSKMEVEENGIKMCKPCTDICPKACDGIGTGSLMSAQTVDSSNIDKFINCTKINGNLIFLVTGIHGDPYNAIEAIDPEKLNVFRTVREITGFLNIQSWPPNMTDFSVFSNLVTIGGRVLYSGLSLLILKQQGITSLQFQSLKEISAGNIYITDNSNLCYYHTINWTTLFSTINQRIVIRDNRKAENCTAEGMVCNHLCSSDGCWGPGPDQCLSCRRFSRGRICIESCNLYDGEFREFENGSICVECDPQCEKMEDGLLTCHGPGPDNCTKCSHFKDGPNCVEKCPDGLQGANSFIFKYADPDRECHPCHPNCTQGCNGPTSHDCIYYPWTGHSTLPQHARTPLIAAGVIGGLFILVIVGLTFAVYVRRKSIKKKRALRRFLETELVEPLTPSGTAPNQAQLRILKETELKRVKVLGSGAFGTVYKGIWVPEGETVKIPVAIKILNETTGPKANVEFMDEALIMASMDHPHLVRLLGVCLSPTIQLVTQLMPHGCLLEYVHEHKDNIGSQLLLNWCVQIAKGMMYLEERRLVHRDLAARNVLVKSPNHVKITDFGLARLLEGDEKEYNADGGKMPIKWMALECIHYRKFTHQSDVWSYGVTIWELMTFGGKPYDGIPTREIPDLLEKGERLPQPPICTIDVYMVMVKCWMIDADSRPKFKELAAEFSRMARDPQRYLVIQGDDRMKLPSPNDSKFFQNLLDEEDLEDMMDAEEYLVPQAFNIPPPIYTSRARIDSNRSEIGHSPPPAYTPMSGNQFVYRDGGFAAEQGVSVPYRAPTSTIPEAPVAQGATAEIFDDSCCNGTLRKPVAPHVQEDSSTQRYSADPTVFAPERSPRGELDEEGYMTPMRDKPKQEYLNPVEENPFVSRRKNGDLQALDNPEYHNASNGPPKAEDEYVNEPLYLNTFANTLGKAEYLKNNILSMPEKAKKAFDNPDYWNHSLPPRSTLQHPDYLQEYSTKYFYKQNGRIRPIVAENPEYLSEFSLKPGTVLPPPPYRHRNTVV

[31] = target: T1, Receptor tyrosine-protein kinase erbB-2; assay: Inhibition of wild-type HER2 (unknown origin) at 0.5 nM in presence of substrate incubated for 30 mins by ADP-Glo assay relative to control
BT-474 [32] = assay: Antiproliferative activity against human BT474 cells assessed as reduction in cell viability incubated for 72 hrs by WST8 assay; format: functional, cell-based; conditions: BT-474, 72 h
AU565 = assay: Antiproliferative activity against human AU565 cells assessed as reduction in cell viability incubated for 72 hrs by WST8 assay; format: functional, cell-based; conditions: AU565, 72 h
[33] = target: T1, Receptor tyrosine-protein kinase erbB-2; assay: Inhibition of HER2 (unknown origin) in presence of substrate incubated for 30 mins by ADP-Glo assay
[34] = target: T1, Receptor tyrosine-protein kinase erbB-2; conditions: Sf9, human, 0.5 h
[35] = target: Epidermal growth factor receptor (Homo sapiens, UniProt P00533); conditions: 0.5 h
Sequence of Epidermal growth factor receptor (P00533 whole entry): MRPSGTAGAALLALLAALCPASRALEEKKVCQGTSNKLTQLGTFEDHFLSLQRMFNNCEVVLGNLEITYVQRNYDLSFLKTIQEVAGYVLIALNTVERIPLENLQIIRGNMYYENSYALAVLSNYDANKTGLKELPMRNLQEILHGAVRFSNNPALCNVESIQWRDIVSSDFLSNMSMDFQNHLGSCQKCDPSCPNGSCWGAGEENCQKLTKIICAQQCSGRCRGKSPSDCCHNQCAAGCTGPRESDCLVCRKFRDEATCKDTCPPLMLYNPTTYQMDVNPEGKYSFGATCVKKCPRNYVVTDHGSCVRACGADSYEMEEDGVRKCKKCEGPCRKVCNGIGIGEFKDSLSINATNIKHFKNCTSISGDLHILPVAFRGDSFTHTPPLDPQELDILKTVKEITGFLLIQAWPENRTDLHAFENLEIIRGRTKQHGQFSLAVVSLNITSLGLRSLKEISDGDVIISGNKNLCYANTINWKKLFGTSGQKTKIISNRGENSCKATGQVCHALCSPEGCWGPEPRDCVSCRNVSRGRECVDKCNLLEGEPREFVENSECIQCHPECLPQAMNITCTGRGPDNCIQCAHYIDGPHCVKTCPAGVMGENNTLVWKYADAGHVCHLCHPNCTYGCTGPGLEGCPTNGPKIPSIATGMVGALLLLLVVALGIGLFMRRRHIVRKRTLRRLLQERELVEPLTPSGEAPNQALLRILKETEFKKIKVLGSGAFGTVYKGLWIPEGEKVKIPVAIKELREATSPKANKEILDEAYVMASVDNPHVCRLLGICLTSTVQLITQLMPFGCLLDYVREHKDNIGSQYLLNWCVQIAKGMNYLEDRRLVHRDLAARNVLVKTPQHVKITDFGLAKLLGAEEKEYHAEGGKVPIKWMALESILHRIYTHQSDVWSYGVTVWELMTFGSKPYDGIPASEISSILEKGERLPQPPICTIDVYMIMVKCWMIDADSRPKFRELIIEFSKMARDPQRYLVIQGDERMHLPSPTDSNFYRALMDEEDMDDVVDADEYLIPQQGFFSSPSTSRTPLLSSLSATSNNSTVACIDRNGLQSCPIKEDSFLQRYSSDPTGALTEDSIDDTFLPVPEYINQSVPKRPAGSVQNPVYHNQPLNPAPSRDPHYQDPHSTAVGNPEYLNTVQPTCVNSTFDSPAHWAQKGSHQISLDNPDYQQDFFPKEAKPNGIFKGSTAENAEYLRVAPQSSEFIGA
Description: Effect on human EGFR in presence of substrate and [gamma-32ATP] at 10 uM incubated for 30 mins by scintillation counting based radiometry assay relative to control

in vitro [36] = conditions: CD-1, mouse, liver microsomes
Description: Metabolic stability in CD-1 mouse liver microsomes assessed as parent compound remaining at 100 uM measured after 60 mins by LC-MS/MS analysis

in vitro [37] = conditions: CD-1, mouse, liver microsomes; remark: listed apart in the source
Description: Metabolic stability in CD-1 mouse liver microsomes assessed as parent compound remaining at 100 uM measured after 60 mins in presence of NADPH by LC-MS/MS analysis

in vitro [38] = conditions: CD-1, mouse, liver microsomes; remark: listed apart in the source
in vitro [39] = conditions: CD-1, mouse, microsomes
in vitro [40] = conditions: CD-1, mouse, liver microsomes; remark: listed apart in the source

O=C(Nc1ccc2ncnc(Nc3ccc(Oc4cccc(F)c4)c(Cl)c3)c2c1)c1ccc(CNCCO)cc1
Activity (BT-474 [1]): Active | Activity (BT-474 [2]): Active | Activity (BT-474 [3]): Active | Activity (BT-474 [4]): Active | Activity (BT-474 [5]): Active | Activity (BT-474 [6]): 0.572 g | TGI (BT-474 [7]): Active | inhibition [8]: Active | inhibition [9]: Active | inhibition [10]: Active | inhibition [11]: Active | inhibition [12]: Active | inhibition [13]: Active | Activity (BT-474 [14]): Active | Activity (BT-474 [15]): Active | Activity (BT-474 [16]): inactive | fold change (FC) (BT-474 [17]): <=6 | Activity (BT-474 [18]): Dose-dependent effect | Activity [19]: <=78.7% | inhibition of growth at 10 µM [20]: ≤ 78.7% | Activity [21]: 18% | Activity (MCF7 [22]): 18% | GI50 (MDA-MB-468 [23]): 600 nM | Activity (MDA-MB-468 [24]): 18% | inhibition of growth at 10 µM (MDA-MB-468 [25]): 18.8% | Activity [26]: 1.3% | Activity [27]: 11.85% | pIC50 (MDA-MB-231): 5.28 | pIC50 (MCF7 [28]): 5.25 | activity at 10 µM [29]: -4% | activity at 10 µM [30]: -98% | inhibition [31]: 3% | pIC50 (BT-474 [32]): 6.69 | pIC50 (AU565): 6.69 | pIC50 [33]: 7.92 | activity at 10 µM [34]: -92% | activity at 10 µM [35]: -70% | remaining at 1 h, 100 µM (in vitro [36]): 100% | remaining at 1 h, 100 µM (in vitro [37]): 103% | CLint scaled at 1 h, 100 µM (in vitro [38]): < 38 mL/min/kg | microsomal CLint at 1 h, 100 µM (in vitro [39]): < 9.6 µL/min/mg | half-life at 1 h, 100 µM (in vitro [40]): > 145 min
